Test results published in patent US20150323548A1, “METHODS OF MONITORING THE MODULATION OF THE KINASE ACTIVITY OF FIBROBLAST GROWTH FACTOR RECEPTOR AND USES OF SAID METHODS” (Novartis AG, priority 2008, published 2015).
Read-outs that look alike come from different tables or passages of the source.

Assays:
FGF23 [1] = details: for mean plasma FGF23 increase over baseline: melanoma patients; for Increase of FGF23 levels over basal levels (up to): 400 mg daily
Procedure: Blood sampling was performed at the indicated day and cycle. FGF23 levels were measured in plasma. The values given for C1D1 are the baseline values.
(§1) Methods: Patients were treated orally with 200, 300, 400 or 500 mg/day on a once daily continuous dose schedule. […] Plasma samples from 43 patients were collected. […] Plasma FGF23 was evaluated by ELISA

clinical = details: human, in vivo, po
Procedure: as §1

FGF23 [2] = experiment: FGF23 ELISA in plasma of mRCC patients; assay type: in vivo, human
[3] = system: FRS2 tyrosine phosphorylation (read-out for FGFR activity); experiment: Ex vivo FRS2 tyrosine phosphorylation in RT112 tumor xenografts in rats (Western blot); design: species or system rat; details: single oral 10, 25 or 50 mg/kg; tumors dissected 3 h post-treatment
Procedure: FIG. 12 is a photograph showing the ex vivo analysis of RT112 tumor xenografts. Tumors were dissected 3 h after compound administration. Tumor tissue was lysed and FRS2 tyrosine phosphorylation levels were analysed by western blot using an antibody from Cell Signaling (#3864) that detects FRS2 when phosphorylated on Tyr196. As a loading control, membrane was probed with an antibody from Sigma (#T4026) that detects b-tubulin.
Compound Formulation and Animal Treatment. […] The application volumes were 5 ml/kg.
Ex vivo analysis of RT112 tumor xenografts: RT112 bladder cancer cells express high levels of FGFR3, the activity of which can be monitored in these cells by measuring changes in FRS2 tyrosine phosphorylation, a substrate of the FGFRs. The tumor material was pulverized using a swing mill (RETSCH, either MM2 or MM200). Aliquots of tumor powder (50 mg) were lysed in ice-chilled lysis buffer containing 50 mM Tris pH 7.5, 150 mM NaCl, 1 mM EGTA, 5 mM EDTA, 1% Triton, 2 mM NaVanadate, 1 mM PMSF and protease inhibitors cocktail Roche #11873580001). Lysates were clarified by centrifugation at 12000×g for 15 min and protein concentration was determined using the DC protein assay reagents (Bio Rad #500-0116) and a BSA standard. Total cell lysates were subjected to SDS-PAGE and proteins blotted onto PVDF membranes. […]

FGF23 [4] = experiment: FGF23 ELISA in serum of wistar rats; assay type: in vivo, rat; details: single oral 50 mg/kg; 24 h post administration; p<0.01
Procedure: Data are presented as means of n=6, ±SD.
Animals. Experiments were performed in female wistar rats furth WF/Ico
The application volumes were 5 ml/kg.
Blood samples were drawn sublingually at 24 h post-compound administration. Plasma, as well as serum samples were prepared from each blood sample.

[5] = system: phosphorylated and activated FGFR; experiment: Immunohistochemistry of pFGFR in melanoma tumor biopsy; details: melanoma patient, 400 mg, cycle 1 Day 15
FGF23 [6] = experiment: FGF23 ELISA in serum of Rowett rats bearing RT112 xenografts; details: single oral 10, 25, 50 mg/kg; 24 hours post dosing; p<0.01
Procedure: FGF23 levels were monitored using the FGF23 ELISA kit from Kainos, catalogue number CY-4000, and are expressed in pg/mL. Data are presented as means of n=4, ±SD. Data were compared by one-way Anova post-hoc Dunnett's versus vehicle.
Animals. Experiments were performed in female Rowett rats Hsd:RH-Foxlrnu. These athymic Nude-Rats were obtained from Harlan (The Netherlands)
Compound Formulation and Animal Treatment. […] Vehicle consisted of acetic acid-acetate buffer (pH 4.6)/PEG300 (2:1 v/v). The application volumes were 5 ml/kg.
Blood and tissue sampling for ex vivo analysis. Blood samples were drawn sublingually at 3 h, 7 h and 24 h post-compound administration. Plasma and as serum were prepared from each blood sample. At the same time points, tumors were dissected and snap frozen in liquid nitrogen.

[7] = Phase I clinical trial in metastatic renal cell carcinoma patients: PK, toxicity, efficacy

CN1CCN(c2ccc3nc(-c4c(N)c5c(F)cccc5[nH]c4=O)[nH]c3c2)CC1 [TKI258]
FGF23 (FGF23 [1]; Patient A, 200 mg daily oral, C1D15): 39.8 pg/mL
FGF23 (FGF23 [1]; Patient A, 200 mg daily oral, C1D26): 24.4 pg/mL
FGF23 (FGF23 [1]; Patient A, 200 mg daily oral, C3D26): 31.8 pg/mL
FGF23 (FGF23 [1]; Patient A, 200 mg daily oral, C6D26): 21.1 pg/mL
FGF23 (FGF23 [1]; Patient A, 200 mg daily oral, C9D26): 39.6 pg/mL
FGF23 (FGF23 [1]; Patient B, 400 mg daily oral, C1D15): 94.1 pg/mL
FGF23 (FGF23 [1]; Patient B, 400 mg daily oral, C3D26): 88.5 pg/mL
FGF23 (FGF23 [1]; Patient B, 400 mg daily oral, C4D26): 141.5 pg/mL
FGF23 (FGF23 [1]; Patient C, 400 mg daily oral, C1D15): 86.5 pg/mL
peak of FGF23 (day in first cycle of treatment) (FGF23 [1]; melanoma and metastatic renal cell carcinoma patients, 400 mg or 500 mg, preliminary observation): ~15 days
mean plasma FGF23 increase over baseline (FGF23 [1]; day 15 of the first treatment cycle): 63%
mean plasma FGF23 increase over baseline (FGF23 [1]; end of the first treatment cycle): 68%
plasma FGF23 increase over baseline (FGF23 [1]; one patient, 400 mg, Cycle 1 Day 15): 98%
plasma FGF23 level (FGF23 [1]; one patient, 400 mg, Cycle 1 Day 15 (baseline level 40 pg/ml)): about 80 pg/ml
Increase of FGF23 levels over basal levels (up to) (FGF23 [1]; patient B): up to 1.96 fold
Increase of FGF23 levels over basal levels (up to) (FGF23 [1]; patient B, listed as TK1258): ≤ 1.96 fold
Increase of FGF23 levels over basal levels (up to) (FGF23 [1]; patient C): ≤ 2.1 fold
AUC(0-t) (clinical; 400 mg): ~3000 ng·h/mL
AUC(0-t) (clinical; 500 mg): ~4100 ng·h/mL
peak of FGF23 level (day of cycle 1) (FGF23 [2]; mRCC patients having increased FGF23): ~15 days
increase of FGF23 level compared to the baseline level (FGF23 [2]; mRCC patients having increased FGF23, 500 mg/day): 1.35-1.75
plasma FGF23 levels (FGF23 [2]; pts from the first 500 mg/day dosing cohort): Induction of plasma FGF23 levels
FRS2 tyrosine phosphorylation in RT112 tumors [3]: inhibited FRS2 tyrosine phosphorylation in a dose-dependent manner
serum levels of FGF23 vs vehicle-treated group (FGF23 [4]): statistically significant increased in serum levels of FGF23
pFGFR in tumor biopsy (immunohistochemistry) [5]: significant pFGFR inhibition
serum levels of FGF23 vs vehicle-treated group (FGF23 [6]): dose-dependent increased in serum levels of FGF23
Preliminary evidence of efficacy (other responses) ([7]; mRCC patients): 4 stable disease and 1 dramatic shrinkage/necrosis of some target lesions
minor response (change at C4) ([7]; one mRCC patient, C4): −17%
